# Test results published in ChEMBL document CHEMBL1255310, “Simvastatin treatment shows no effect on the incidence of cerebral malaria or parasitemia during experimental malaria” (2008).
# Key:
# Type in all cases: functional
# Plasmodium berghei [1] = assay: Antiplasmodial activity against Plasmodium berghei ANKA infected in C57BL/6 mice (Mus musculus) assessed as parasitemia at 100 ug/g, perorally on days 1,3 and 5
# Plasmodium berghei [2] = assay: Antiplasmodial activity against Plasmodium berghei ANKA infected in C57BL/6 mice (Mus musculus) assessed as parasitemia at 2 ug/g, intraperitoneally on days 2,4 and 6
# Plasmodium berghei [3] = assay: Antiplasmodial activity against Plasmodium berghei ANKA infected in C57BL/6 mice (Mus musculus) assessed as parasitemia at 40 ug/g, intraperitoneally on days 2,4 and 6
# Plasmodium berghei [4] = assay: Antiplasmodial activity against Plasmodium berghei ANKA infected in C57BL/6 mice (Mus musculus) assessed as parasitemia at 0.5 ug/g, intraperitoneal on day 2, 1 ug/g, intraperitoneal on day 4 followed by 2 ug/g on day 6
smiles,measurement,setting,value
CCC(C)(C)C(=O)O[C@H]1C[C@@H](C)C=C2C=C[C@H](C)[C@H](CC[C@@H]3C[C@@H](O)CC(=O)O3)[C@H]21 [SIMVASTATIN],Activity,Plasmodium berghei [1],2.98%
same,Activity,Plasmodium berghei [2],2.38%
same,Activity,Plasmodium berghei [3],2.04%
same,Activity,Plasmodium berghei [4],3.04%
